# Laboratory results from patent US20090318354A1, “Use of at least one isoform of progesterone receptor membrane component 1 (PGRMC1)” (PROTEOSYS AG, priority 2006, published 2009).
# Columns and labels:
# AKT = details: S56A/S180A and Y179F/S180A mutants, H2O2 even at 1 mM
# Description: Antibodies employed were specific for phosphorylated AKT (top), for the polypeptide backbone of AKT (middle), or for the HA-tag on the respective exogenously expressed PGRMC1 constructs.
# MCF7 breast cancer cells = experiment: ATP-TCA cell viability assay in MCF7 cells and MCF7 cells stably expressing PGRMC1 WT or mutants; assay type: cell-based, human
# [1] = system: breast cancer exhibiting a positive ER status; details: patients suffering from breast cancer exhibiting a positive ER status; cited from earlier work
compound,measurement,setting,value
"OO [H2O2, hydrogen peroxide]",phosphorylation of AKT upon H2O2 treatment,AKT,neither of the mutants that survived H2O2 treatment in FIG. 10B exhibited phosphorylation of AKT
same,cell viability,"MCF7 breast cancer cells; MCF7 cells, 50 μM H2O2, RPMI with 10% FCS",reduced cell viability
"CC(=O)[C@H]1CC[C@H]2[C@@H]3CCC4=CC(=O)CC[C@]4(C)[C@H]3CC[C@]12C [Progesterone, progesterone]",proliferative effect relative to other cells,"MCF7 breast cancer cells; PGRMC1-WT cell line, progesterone 10^-7 M, 5 days, charcoal-treated FCS",marginal proliferative effect
same,viability of cells,"MCF7 breast cancer cells; cells generally, progesterone 10^-7 M, charcoal-treated FCS, 5 days",not affected greatly
CC[C@H](C)C(=O)O[C@H]1C[C@@H](C)C=C2C=C[C@H](C)[C@H](CC[C@@H]3C[C@@H](O)CC(=O)O3)[C@H]21 [lovastatin],viability,"MCF7 breast cancer cells; PGRMC1 Y179F/S180A mutant, lower concentrations of lovastatin",improved viability
same,viability,"MCF7 breast cancer cells; all cell lines, high levels of lovastatin, 2 days, charcoal-treated FCS",reduced
CC/C(=C(\c1ccccc1)c1ccc(OCCN(C)C)cc1)c1ccccc1 [tamoxifen],cases in which treatment is effective,[1],approximately 50%
same,resistance of clone to Tamoxifen,"MCF7 breast cancer cells; clone S56A/S180A, comparable to wild-type PGRMC1 control or native MCF7 cells",exhibited resistance
same,susceptibility of clone to Tamoxifen,MCF7 breast cancer cells; clone S180A,highly susceptible
same,viability of cells,"MCF7 breast cancer cells; tamoxifen 10^-8 M, charcoal-treated FCS, 5 days",reduced viability
estrogen,viability of cells,"MCF7 breast cancer cells; estrogen 10^-9 M added to RPMI with charcoal-treated FCS, 5 days",improved
same,rescue of impaired viability in the presence of tamoxifen,MCF7 breast cancer cells; estrogen 10^-9 M plus tamoxifen 10^-8 M,could not rescue
methyl-β-cyclodextrin,cell viability relative to MCF7 control cells,"MCF7 breast cancer cells; cells expressing all PGRMC1 mutants except S180A, 5 mM methyl-beta-cyclodextrin, 2 h, charcoal-treated FCS",drastically reduced cell viability
